Laboratory results: paper PMC12436592 (Nature Communications, 2025)
Where “and” joins values, the source holds several entries; their conditions need not be identical. Equal values may be shown once.

Columns and labels:
hP2X7R = target: T1, hP2X7R (Homo sapiens, UniProt Q99572); assay: Calcium influx assay, 1321N1 astrocytoma cells, BzATP EC80; assay type: cell-based; set-up: expressed in transfected cells; conditions: for IC50: 1321N1 cells, BzATP EC80, mean ± SD
T1 sequence (Q99572 1-595): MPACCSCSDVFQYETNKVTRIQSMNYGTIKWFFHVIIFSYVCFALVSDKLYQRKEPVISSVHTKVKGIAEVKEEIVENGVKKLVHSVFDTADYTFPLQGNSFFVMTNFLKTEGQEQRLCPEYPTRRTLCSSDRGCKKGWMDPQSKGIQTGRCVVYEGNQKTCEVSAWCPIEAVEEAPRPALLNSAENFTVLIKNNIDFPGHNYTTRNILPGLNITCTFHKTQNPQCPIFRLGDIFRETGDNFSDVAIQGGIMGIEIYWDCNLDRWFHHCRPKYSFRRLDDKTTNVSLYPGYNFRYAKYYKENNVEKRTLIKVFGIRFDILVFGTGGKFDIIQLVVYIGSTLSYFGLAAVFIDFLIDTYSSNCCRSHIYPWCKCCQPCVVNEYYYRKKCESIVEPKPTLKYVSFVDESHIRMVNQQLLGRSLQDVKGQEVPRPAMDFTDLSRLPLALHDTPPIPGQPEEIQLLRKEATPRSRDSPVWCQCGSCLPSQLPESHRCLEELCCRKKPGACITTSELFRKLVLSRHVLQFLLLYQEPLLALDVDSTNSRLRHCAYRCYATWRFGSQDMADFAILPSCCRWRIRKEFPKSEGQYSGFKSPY
Excerpt: For 1321N1 astrocytoma cells stably expressing the human, rat, or mouse P2X7Rs, or hP2X2Rs or hP2X4Rs, the fluorescent Ca^2+-chelating dye Fluo-4 acetoxymethyl ester (Fluo-4 AM, Thermo Fisher Scientific, Dreieich, Germany) was used. For 1321N1 astrocytoma cell lines recombinantly expressing the hP2X1Rs or hP2X3Rs, the FLIPR® Calcium 5 Assay Kit (Molecular Devices, San José, CA, USA) was employed. Human, rat, and mouse P2X7Rs as well as hP2X1Rs, hP2X2Rs, hP2X3Rs, and hP2X4Rs were recombinantly expressed in 1321N1 astrocytoma cells using a retroviral expression system[72]–[74].
(§1) On the first day, 45,000 cells per well (30,000 cells for the human P2X3 receptor-expressing cells) were seeded into a 96-well polystyrene microplate with a black, flat bottom in a final volume of 200 µL. After overnight incubation at 37 °C and 10% CO2 (5% CO2 for the human P2X3R-expressing cell line), the medium was removed by inverting the plate, and the cells were loaded with dye solution. Hanks’ balanced salt solution (HBSS, Thermo Fisher Scientific, Dreieich, Germany) was used as the assay buffer for human P2X1R, P2X2R, P2X3R, and P2X4R. For the P2X7Rs, a different assay buffer was used: 150 mM sodium-glutamate, 5 mM KCl, 0.5 mM CaCl2, 0.1 mM MgCl2, 10 mM D-glucose, 25 mM 4-(2-hydroxyethyl)-1-piperazineethanesulfonic acid (HEPES), pH 7.4. The dye solutions were freshly prepared. The Fluo-4 AM solution contained 3 µM of Fluo-4 AM in assay buffer and 1% of the non-ionic detergent Pluronic F-127® (Sigma-Aldrich, Taufkirchen, Germany). The Calcium 5 dye, used for hP2X1Rs and hP2X3Rs, was prepared in HBSS buffer. Cells were loaded with Fluo-4 AM and incubated for 1 h at room temperature with gentle shaking (100 rpm), while those loaded with the Calcium 5 dye were incubated for 1 h at 37 °C. After incubation, the dye solution was carefully removed from the plate, and buffer was added to the cells for the evaluation of agonists. […] The agonist solution was prepared in a 96-well transparent plate, obtaining the respective EC80 values. As a control, assay buffer without the test compound was used. After 30 min of incubation with antagonist, the plates were measured using a fluorescence imaging plate reader NOVOstar (BMG Labtech GmbH, Offenburg, Germany) at an excitation wavelength of 485 nm and an emission wavelength of 520 nm, for 30 s at 0.4 s intervals. Calcium influx measurements were then initiated by automatic addition of 20 µL of agonist solution by the plate reader’s pipetting device. Data were analyzed using Microsoft Excel and GraphPad Prism (Version 8.0, San Diego, CA, USA). EC80 and IC50 values were calculated using nonlinear regression with a sigmoidal dose-response equation.

hP2X2R = system: T2, hP2X2R; assay: Calcium influx assay, 1321N1 astrocytoma cells, ATP EC80; assay type: cell-based, human; conditions: 10 μM antagonist, ATP 1000 nM
T2 construct: expressed in transfected cells
Excerpt: (§2) . For 1321N1 astrocytoma cells stably expressing the human, rat, or mouse P2X7Rs, or hP2X2Rs or hP2X4Rs, the fluorescent Ca^2+-chelating dye Fluo-4 acetoxymethyl ester (Fluo-4 AM, Thermo Fisher Scientific, Dreieich, Germany) was used. For 1321N1 astrocytoma cell lines recombinantly expressing the hP2X1Rs or hP2X3Rs, the FLIPR® Calcium 5 Assay Kit (Molecular Devices, San José, CA, USA) was employed. Human, rat, and mouse P2X7Rs as well as hP2X1Rs, hP2X2Rs, hP2X3Rs, and hP2X4Rs were recombinantly expressed in 1321N1 astrocytoma cells using a retroviral expression system[72]–[74].
as §1

hP2X4R = system: T3, hP2X4R; assay: as above; assay type: cell-based, human; conditions: 10 μM antagonist, ATP 300 nM
T3 construct: expressed in transfected cells
Excerpt: as §2, §1

rP2X7R = target: T4, rP2X7R (Rattus norvegicus, UniProt Q64663); assay: Calcium influx assay, 1321N1 astrocytoma cells, BzATP EC80; assay type: cell-based; set-up: expressed in transfected cells; conditions: for IC50: 1321N1 cells, BzATP EC80, mean ± SD
T4 sequence (Q64663 1-595): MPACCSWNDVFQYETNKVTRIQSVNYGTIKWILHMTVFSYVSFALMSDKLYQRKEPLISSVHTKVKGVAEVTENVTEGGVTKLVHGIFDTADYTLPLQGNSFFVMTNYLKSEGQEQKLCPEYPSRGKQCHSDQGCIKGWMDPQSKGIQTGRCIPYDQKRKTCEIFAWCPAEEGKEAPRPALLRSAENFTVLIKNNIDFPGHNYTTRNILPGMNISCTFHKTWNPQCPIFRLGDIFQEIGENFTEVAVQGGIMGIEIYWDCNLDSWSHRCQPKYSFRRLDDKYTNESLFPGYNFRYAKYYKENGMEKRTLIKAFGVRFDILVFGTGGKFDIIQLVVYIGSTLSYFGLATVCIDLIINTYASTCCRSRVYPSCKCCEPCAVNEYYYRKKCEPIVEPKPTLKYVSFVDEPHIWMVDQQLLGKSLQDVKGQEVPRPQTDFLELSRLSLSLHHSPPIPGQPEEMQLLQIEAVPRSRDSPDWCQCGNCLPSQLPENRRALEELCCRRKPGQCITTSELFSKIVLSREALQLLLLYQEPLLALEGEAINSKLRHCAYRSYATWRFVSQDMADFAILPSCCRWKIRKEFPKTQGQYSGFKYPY
Excerpt: as §2, §1

Compound: O=C(NNc1ccccc1Cl)C12CC3CC(CC(C3)C1)C2 [UB-ALT-P30, reference compound]
- IC50 (hP2X7R): 17.8 nM and 18 nM
- normalized calcium signal, hP2X7R IC50 curve (hP2X7R; Log(c) M -9, 0.001 µM): 71.6317 and 73.6475 and 92.6717 and 89.8426 and 81.3931
- % inhibition ± SD at 10 μM, hP2X2R (hP2X2R): 29 ± 7%
- % inhibition ± SD at 10 μM, hP2X4R (hP2X4R): 44 ± 14%
- activity at 0.03 µM (rP2X7R; 1321-N1, Log(c) M -7.52288, read-out: normalized calcium signal, rP2X7R IC50 curve): 94.8%
- activity at 0.01 µM (rP2X7R; 1321-N1, Log(c) M -8, read-out: normalized calcium signal, rP2X7R IC50 curve): 98.3%
- IC50 (rP2X7R): 116 ± 50 nM
- normalized calcium signal, rP2X7R IC50 curve (rP2X7R; Log(c) M -7.52288, 0.03 µM): 96.1595 and 98.0559 and 102.654 and 103.189
- normalized calcium signal, rP2X7R IC50 curve (rP2X7R; Log(c) M -8, 0.01 µM): 98.7308 and 105.449 and 107.576 and 114.231 and 110.835
- normalized calcium signal, rP2X7R IC50 curve (rP2X7R; Log(c) M -8.52288, 0.003 µM): 87.0316 and 95.5173 and 98.7016 and 89.3009 and 111.685 and 110.916 and 108.743

Compound: CC12CC3CC1(C)C1(C)CC3(C(=O)NNc3ccccc3Cl)CC21C [UB-MBX-46]
- activity at 0.0003 µM (hP2X7R; 1321-N1, Log(c) M -9.52288, read-out: normalized calcium signal, hP2X7R IC50 curve): 82.4%
- activity at 0.0001 µM (hP2X7R; 1321-N1, Log(c) M -10, read-out: normalized calcium signal, hP2X7R IC50 curve): 110%
- activity at 30 pM (hP2X7R; 1321-N1, Log(c) M -10.5229, read-out: normalized calcium signal, hP2X7R IC50 curve): 100%
- IC50 (hP2X7R): 0.514 ± 0.035 nM
- normalized calcium signal, hP2X7R IC50 curve (hP2X7R; Log(c) M -9.52288, 0.0003 µM): 83.2395 and 75.8405 and 85.4678 and 91.9881
- normalized calcium signal, hP2X7R IC50 curve (hP2X7R; Log(c) M -10, 0.0001 µM): 91.6497 and 103.346 and 103.977
- times more potent than UB-ALT-P30 on the hP2X7R (hP2X7R; calcium influx): ~ 35 x
- % inhibition ± SD at 10 μM, hP2X2R (hP2X2R): 15 ± 9%
- % inhibition ± SD at 10 μM, hP2X4R (hP2X4R): 41 ± 19%
- activity at 0.003 µM (rP2X7R; 1321-N1, Log(c) M -8.52288, read-out: normalized calcium signal, rP2X7R IC50 curve): 92.9%
- activity at 0.001 µM (rP2X7R; 1321-N1, Log(c) M -9, read-out: normalized calcium signal, rP2X7R IC50 curve): 83%
- activity at 0.0003 µM (rP2X7R; 1321-N1, Log(c) M -9.52288, read-out: normalized calcium signal, rP2X7R IC50 curve): 92.1%
- IC50 (rP2X7R): 40.6 ± 10.4 nM
- normalized calcium signal, rP2X7R IC50 curve (rP2X7R; Log(c) M -8, 0.01 µM): 92.0673 and 92.0463 and 93.4263 and 100.969 and 74.9729 and 70.4733
- normalized calcium signal, rP2X7R IC50 curve (rP2X7R; Log(c) M -8.52288, 0.003 µM): 98.336 and 95.4706 and 107.675 and 91.9395
- normalized calcium signal, rP2X7R IC50 curve (rP2X7R; Log(c) M -9, 0.001 µM): 97.4351
- times more potent than UB-ALT-P30 on the rP2X7R (rP2X7R; calcium influx): ~ 3 x
